Test results from article PMC6009902, “1-(Benzo[d]thiazol-2-yl)-3-phenylureas as dual inhibitors of casein kinase 1 and ABAD enzymes for treatment of neurodegenerative disorders” (Journal of Enzyme Inhibition and Medicinal Chemistry, 2018).
Several values for one entry are separate records, joined by “and”; a condition that tells them apart may be missing. Equal values may be shown once.

Assays:
[1] = test system: CK1δ; parameters: method as in PMID 20577972; conditions: standards; cited from earlier work
[2] = target: T1, Human recombinant Casein Kinase 1 delta (CK1δ) (Homo sapiens, UniProt P48730); experiment: CK-1δ Kinase-Glo assay; type: biochemical; conditions: for IC50: human recombinant enzyme, mean of two independent experiments, read-out: IC50 CK1δ (µM ± SD); for CK1δ inhibition (value in parentheses): screening at fixed concentration of 10 µM
T1 construct: purchased Millipore (Millipore Iberica S.A.U.)
T1 sequence (P48730 whole entry): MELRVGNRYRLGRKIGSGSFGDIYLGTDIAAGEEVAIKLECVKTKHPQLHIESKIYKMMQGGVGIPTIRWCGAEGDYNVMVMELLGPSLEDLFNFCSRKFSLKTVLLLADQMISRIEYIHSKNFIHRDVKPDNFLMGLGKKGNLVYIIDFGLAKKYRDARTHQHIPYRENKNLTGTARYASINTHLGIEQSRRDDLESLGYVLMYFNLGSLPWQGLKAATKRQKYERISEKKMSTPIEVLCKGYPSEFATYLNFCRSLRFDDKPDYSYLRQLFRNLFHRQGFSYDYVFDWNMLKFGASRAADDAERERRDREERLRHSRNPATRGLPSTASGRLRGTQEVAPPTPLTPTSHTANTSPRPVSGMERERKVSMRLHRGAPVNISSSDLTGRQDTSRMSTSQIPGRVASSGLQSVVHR
Protocol: (§1) The Kinase-Glo Kit was purchased from Promega (Promega Biotech Ibérica, SL) and was used to screen compounds for activity against CK-1δ and CK1ε. Human recombinant Casein Kinase 1 delta and epsilon was purchased from Millipore (Millipore Iberica S.A.U.). Casein solution from bovine milk, 5%, was purchased from Sigma-Aldrich (St. Louis, MO, USA). ATP and all other reagents were from Sigma-Aldrich (St. Louis, MO, USA). Kinase-Glo assays were performed in assay buffer using black 96-well plates. In a typical assay, 10 µL of test compound (dissolved in DMSO at 1 mM concentration and diluted in advance in assay buffer to the desired concentration) 10 µL (16 ng) of enzyme were added to each well followed by 20 µL of assay buffer containing 0.1% casein as substrate and 4 µM ATP. […] After 60 min incubation at 30 °C the enzymatic reaction was stopped with 40 µL of Kinase-Glo reagent. Glow-type luminescence was recorded after 10 min using a FLUOstar Optima (BMG Labtechnologies GmbH, Offenburg, Germany) multimode reader. The activity is proportional to the difference of the total and consumed ATP. The inhibitory activities were calculated on the basis of maximal activities measured in the absence of inhibitor. […] Each value is the mean of two independent experiments.
Compounds were screened against human recombinant enzyme CK1δ at a fixed concentration of 10 µM.

[3] = target: T2, Human recombinant Casein Kinase 1 epsilon (CK1ε) (Homo sapiens, UniProt P49674); experiment: CK-1ε Kinase-Glo assay; type: biochemical; conditions: for IC50: human recombinant enzyme, mean of two independent experiments, read-out: IC50 CK1ε (µM ± SD)
T2 construct: purchased Millipore (Millipore Iberica S.A.U.)
T2 sequence (P49674 whole entry): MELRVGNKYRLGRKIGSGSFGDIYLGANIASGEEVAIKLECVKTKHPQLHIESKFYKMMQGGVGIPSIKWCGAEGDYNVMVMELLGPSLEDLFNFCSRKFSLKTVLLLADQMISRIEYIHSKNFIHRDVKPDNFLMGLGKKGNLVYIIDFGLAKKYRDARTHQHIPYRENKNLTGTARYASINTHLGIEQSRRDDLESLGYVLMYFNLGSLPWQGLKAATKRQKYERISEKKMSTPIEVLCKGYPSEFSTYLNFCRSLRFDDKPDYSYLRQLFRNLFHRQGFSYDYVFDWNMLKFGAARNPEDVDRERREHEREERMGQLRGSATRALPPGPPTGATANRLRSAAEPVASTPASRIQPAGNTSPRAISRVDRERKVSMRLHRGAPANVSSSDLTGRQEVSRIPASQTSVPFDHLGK
Protocol: as §1, with “experiments. […]” for “experiments.”

[4] = PAMPA-BBB assay; conditions: for Pe (10^−6 cm s^−1): 2.5 h
Protocol: Prediction of the BBB penetration was evaluated using a parallel artificial membrane permeability assay (PAMPA) using the setup according to Di et al.[12]. Ten commercial drugs, phosphate buffer saline solution at pH 7.4 (PBS), Ethanol and dodecane were purchased from Sigma, Acros organics, Merck, Aldrich and Fluka. […] Filter PDVF membrane units (diameter 30 mm, pore size 0.45 µm) from Symta were used to filtered the samples. A 96-well plate UV reader (Thermo Scientific, Multiskan spectrum) was used for the UV measurements. […] About 100 µL of this compound stock solution was taken and […] of EtOH and 3500 µL of PBS pH = 7.4 buffer were added to reach 30% of EtOH concentration in the experiment. These solutions were filtered. The acceptor 96-well microplate was filled with 180 µL of PBS/EtOH (70/30). The donor 96-well plate was coated with 4 µL of porcine brain lipid in dodecane (20 mg mL^−1) and after 5 min, 180 µL of each compound solution was added. About 1–2 mg of every compound to be determined their ability to pass the brain barrier were dissolved in 1500 µL of EtOH and 3500 µL of PBS pH = 7.4 buffer, filtered and then added to the donor 96-well plate. Then the donor plate was carefully put on the acceptor plate to form a “sandwich”, which was left undisturbed for 2 h and 30 min at 25 °C. During this time the compounds diffused from the donor plate through the brain lipid membrane into the acceptor plate. After incubation, the donor plate was removed. UV plate reader determined the concentration of compounds and commercial drugs in the acceptor and the donor wells. Every sample was analysed at three to five wavelengths, in three wells and in two independent runs. […] 10 quality control compounds (previously mentioned) of known BBB permeability were included in each experiment to validate the analysis set.
Parallel Artificial Membrane Permeability Assay (PAMPA) is technique developed to predict passive permeability through biological membranes. […] An assay validation was made comparing the reported permeability values of commercial drugs with the experimental data obtained employing this methodology.

[5] = target: amyloid-beta binding alcohol dehydrogenase (ABAD); parameters: method as in PMID 27287370; conditions: cited from earlier work
[6] = test system: CK1ε; parameters: method as in PMID 20577972; conditions: standards; cited from earlier work

Row | Structure (SMILES) | IC50 [2] | SI (Selectivity index = IC50CK1ε/IC50CK1δ) [2] | IC50 [3] | also measured
2 | O=C(Nc1ccc(O)cc1)Nc1nc2ccc(F)cc2s1 [Compound K684] | 1.37 ± 0.23 µM | – | – | –
3 | O=C(Nc1ccc(O)cc1)Nc1nc2ccc(Cl)cc2s1 [Compound K685] | 0.59 ± 0.06 µM | 15.3 | 9.01 ± 0.37 µM | –
4 | O=C(Nc1cccc(O)c1)Nc1nc2ccc(F)cc2s1 [Compound K686] | 0.86 ± 0.1 µM | 4.7 | 4.02 ± 0.16 µM | –
5 | O=C(Nc1cccc(O)c1)Nc1nc2ccc(Cl)cc2s1 [Compound K687] | – | 12.0 | ~2 µM and 1.92 µM | –
6 | O=C(Nc1nc2ccc(F)cc2s1)Nc1ccccc1O [Compound K688] | 0.9 ± 0.14 µM | 8.1 | 7.33 ± 0.29 µM | –
7 | O=C(Nc1nc2ccc(Cl)cc2s1)Nc1ccccc1O [Compound K689] | < 0.5 µM and 0.48 µM | 8.1 | 3.91 ± 0.4 µM | –
8 | O=C(Nc1ccc(O)c(Cl)c1)Nc1nc2ccc(F)cc2s1 [Compound K690] | 0.84 ± 0.16 µM | 12.0 | 10.1 ± 0.74 µM | ability to cross the BBB (in words) [4]: able to cross the BBB by passive permeation; Pe (10^−6 cm s^−1) ([4]; pig, pH 7.4): 13.2 ± 1.4 10^−6 cm s^−1; IC50 [5]: 1.89 µM
9 | O=C(Nc1ccc(O)c(Cl)c1)Nc1nc2ccc(Cl)cc2s1 [Compound K691] | 0.73 ± 0.21 µM | 4.1 | 3.01 ± 0.33 µM | ability to cross the BBB (in words) [4]: able to cross the BBB by passive permeation; Pe (10^−6 cm s^−1) ([4]; pig, pH 7.4): 14 ± 2 10^−6 cm s^−1; IC50 [5]: 1.67 µM
10 | O=C(Nc1ccc(O)c(C(=O)O)c1)Nc1nc2ccc(F)cc2s1 [Compound K692] | 0.91 ± 0.31 µM | 9.2 | 8.41 ± 0.71 µM | –
11 | O=C(Nc1ccc(O)c(C(=O)O)c1)Nc1nc2ccc(Cl)cc2s1 [Compound K693] | < 0.5 µM and 0.4 µM | 5.7 | ~2 µM and 2.29 µM | –
12 | COc1ccc(NC(=O)Nc2nc3ccc(F)cc3s2)cc1 [Compound K694] | 7.38 ± 0.93 µM | – | – | –
13 | COc1ccc(NC(=O)Nc2nc3ccc(Cl)cc3s2)cc1 [Compound K695] | 8.87 ± 0.73 µM | – | – | –
14 | COc1ccc(NC(=O)Nc2nc3ccc(F)cc3s2)cc1OC [Compound K696] | > 10 µM | – | – | CK1δ inhibition (value in parentheses) [2]: 23%
15 | COc1ccc(NC(=O)Nc2nc3ccc(Cl)cc3s2)cc1OC [Compound K697] | 0.69 ± 0.19 µM | >14.5 | > 10 µM | CK1ε inhibition (value in parentheses) ([3]; printed beside IC50 >10 µM): 26%
16 | COc1ccc(NC(=O)Nc2nc3ccc(F)cc3s2)cc1C(=O)O [Compound K698] | 3.37 ± 0.4 µM | – | – | –

Row | Structure (SMILES) | IC50 [2] | SI (Selectivity index = IC50CK1ε/IC50CK1δ) [2] | IC50 [3] | also measured
17 | COc1ccc(NC(=O)Nc2nc3ccc(Cl)cc3s2)cc1C(=O)O [Compound K699] | < 0.5 µM and 0.46 µM | 7.6 | 3.49 ± 0.09 µM | –
18 | O=C(Nc1ccc(Oc2ccccc2)cc1)Nc1nc2ccc(F)cc2s1 [Compound K700] | > 10 µM | – | – | CK1δ inhibition (value in parentheses) [2]: 36%
19 | O=C(Nc1ccc(Oc2ccccc2)cc1)Nc1nc2ccc(Cl)cc2s1 [Compound K701] | > 10 µM | – | – | CK1δ inhibition (value in parentheses) [2]: 37%
20 | O=C(Nc1ccc(C(=O)O)cc1)Nc1nc2ccc(F)cc2s1 [Compound K702] | 2.99 ± 0.36 µM | – | – | –
21 | O=C(Nc1ccc(C(=O)O)cc1)Nc1nc2ccc(Cl)cc2s1 [Compound K703] | < 0.5 µM and 0.3 µM | 12.3 | 3.69 ± 0.41 µM | –
22 | CCOC(=O)c1ccc(NC(=O)Nc2nc3ccc(F)cc3s2)cc1 [Compound K704] | > 10 µM | – | – | CK1δ inhibition (value in parentheses) [2]: 31%
23 | CCOC(=O)c1ccc(NC(=O)Nc2nc3ccc(Cl)cc3s2)cc1 [Compound K705] | > 10 µM | – | – | CK1δ inhibition (value in parentheses) [2]: 45%
24 | COC(=O)c1ccc(NC(=O)Nc2nc3ccc(F)cc3s2)cc1 [Compound K706] | > 10 µM | – | – | CK1δ inhibition (value in parentheses) [2]: 48%
25 | COC(=O)c1ccc(NC(=O)Nc2nc3ccc(Cl)cc3s2)cc1 [Compound K707] | 8.73 ± 0.71 µM | – | – | –
26 | CC(=O)Nc1ccc(NC(=O)Nc2nc3ccc(F)cc3s2)cc1 [Compound K708] | > 10 µM | – | – | CK1δ inhibition (value in parentheses) [2]: 39%
27 | CC(=O)Nc1ccc(NC(=O)Nc2nc3ccc(Cl)cc3s2)cc1 [Compound K709] | 1.32 ± 0.15 µM | – | – | –
28 | COC(=O)c1cc(NC(=O)Nc2nc3ccc(F)cc3s2)ccc1O [Compound K710] | > 10 µM | – | – | CK1δ inhibition (value in parentheses) [2]: 24%
29 | COC(=O)c1cc(NC(=O)Nc2nc3ccc(Cl)cc3s2)ccc1O [Compound K711] | 9.98 ± 0.96 µM | – | – | –
30 | COc1cc(OC)c(C=C2C(O)=Nc3ccccc32)c(OC)c1 [IC261] | – | – | – | IC50 [1]: 1 µM; IC50 [6]: 1 µM
31 | CN(C)CCCN1c2ccccc2Sc2ccccc21 [promazine, reference compound] | – | – | – | Papp at 2.5 h ([4]; pig, pH 7.4): 8.1 ± 0.1 ×10⁻⁶ cm/s
